Results taken from patent US8828678B2, “Self-immolative probes for enzyme activity detection” (Enzo Life Sciences, Inc., priority 2010, dated 2014).

Tests used:
hypoxic HeLa cells = assay: Detection of hypoxia with hypoxia markers using fluorescence microscopy; assay type: cell-based, human; settings: 5 μM, 3.5 h, chemical induction of hypoxia (CoCl2, DFO, DMOG) or anoxic treatment, FITC filter
Experimental: The human cervical adenocarcinoma epithelial cell line HeLa, U-2 OS human bone osteosarcoma cell line and hamster ovary CHO K1 cell line were obtained from ATTC. HeLa cells were routinely cultured in Eagle's Minimum Essential Medium with low glucose (ATCC), supplemented with 10% fetal bovine serum (ATCC) and 100 U/ml penicillin, 100 μg/ml streptomycin (Sigma-Aldrich, St. Louis, Mo.). U-2 OS cells were routinely cultured in McCoy's 5a Modified Medium (ATCC), supplemented with 10% fetal bovine serum heat (ATCC) and 100 U/ml penicillin+100 μg/ml streptomycin (Sigma-Aldrich). […]
The day before the experiment, the cells were seeded on 4-well microscope slides (Cel-Line™ Brand, Portsmouth, N.H.) at a density 1×10^4 cells/well (2×10^4 cells/cm^2). […] Post-treatment, the slides were washed twice with PBS, coverslipped and visualized using an Olympus BX-51 fluorescence microscope (FITC filter set, 490ex/525em).
In parallel, the hypoxia cellular state was detected using the hypoxia detecting reagent pimonidazole (Varia et al., 1998; Young, 1977). […] Slides were stained with a 1:100 dilution of FITC-MAb1 against pimonidazole (HP-1 kit from Hypoxyprobe) for 45 min at 4° C., washed twice with PBS, coverslipped and visualized using an Olympus BX-51 fluorescence microscope equipped with an FITC filter set (490ex/525em). […]

HeLa cells = assay: Combined detection of hypoxia and redox status in live cells by fluorescent microscopy; assay type: cell-based, human; settings: for superoxide production (superoxide detection reagent staining) in treated HeLa cells: 0.2 mM CoCl2, 0.2 mM DFO or 1 mM DMOG, 3.5 h
Experimental: HeLa and U-2 OS cells were cultured as described in Example 7. Stock solutions of CD-1 and CD-5 and various hypoxia inducers were prepared and stored as described in Examples 7 and 8. Additionally, 5 mM stock solutions (5000×) of 2′,7′-dichloro-fluorescein diacetate (DCFDA, an indicator of global ROS generation) and dihydroethidium (DHE, specific indicator of superoxide generation) were made in anhydrous DMF. DMSO was avoided, since this solvent is a hydroxyl radical scavenger and its presence may affect ROS/RNS production in cellular systems. The following stocks of ROS inducers were prepared in DMF: 10 mM pyocyanin (general ROS generating compound, 100×), 20 mM antimycin A (general ROS inducer, 400×), 50 mM pyrogallol (a superoxide radical generator, 1000×), 1 mM t-butyl hydroperoxide (TBHP, peroxide radical inducer, 10,000×). ROS probes and inducers were aliquoted and stored at −80° C.
The day before the experiment, the cells were seeded on 4-well microscope slides (Cel-Line™ Brand, Portsmouth, N.H.) at a density 1×10^4 cells/well (2×10^4 cells/cm^2). On the day of the experiment, the cells were preloaded with both hypoxia probe (5 μM final concentration in cell culture medium) and ROS detecting reagent with suitable spectral characteristics. Two ROS-detecting probes, DCFDA and DHE, were used in a pilot experiment in conjunction with hypoxia self-immolative probes. The hydrolyzed product of DCFDA, DCFH, is considered to be a general indicator of ROS, reacting with H2O2 (in the presence of peroxidases), ONOO^−, lipid hydroperoxides, and hydroxyl radicals. The oxidized product can be detected by strong fluorescence emission at around 525 nm when excited at around 488 nm. Because H2O2 is a secondary product of O2.^−, DCFH fluorescence has been used to implicate O2.^− production. The direct reaction of DHE with O2.^− yields a very specific fluorescent product, requiring no conversion to H2O2. The product of the DHE reaction with O2.^− fluoresces strongly at around 600 nm when excited at 500-530 nm.
Tested pairs of the probes were as follows: CD-5 with DCFDA or DHE, and CD-1 with DHE. A hypoxic state was induced in the cells as described in Example 7. Control slides were singly-stained with hypoxia or ROS-detecting probes only. Additional slides were treated with different general and specific ROS inducers and stained with ROS-detecting probes to control ROS staining. Post-treatment, the slides were washed twice with PBS, coverslipped and visualized using an Olympus BX-51 fluorescence microscope and a DAPI filter set (350 ex/470em) for CD-5, an FITC filter set (490ex/525em) for CD-1 or for total ROS detection reagent, and an orange filter set (550ex/620em) for HE.

Jurkat cells [1] = assay: Detection of hypoxia using flow cytometry; assay type: cell-based, human; settings: 5 μM CD-1, 1 μM CD-6, versus vehicle-treated loaded cells
Experimental: HeLa and U-2 OS cells were cultured as described in Example 7. Human Jurkat T-cell leukemia cells (the A3 subclone) was obtained from ATCC and routinely cultured in RPMI-1640 medium (ATCC) supplemented with 10% fetal bovine serum (ATCC) and 100 U/ml penicillin+100 μg/ml streptomycin (Sigma-Aldrich). Cell cultures were maintained in an incubator at 37° C., with 5% CO2 atmosphere. CD-1, CD-4 and CD-6 self-immolative hypoxia probes were prepared as described in Example 8. All hypoxia inducers stocks were prepared as described in Example 7.
The day before the experiment, HeLa and U-2 OS cells were seeded in 6-well tissue culture plates at a density 5×10^5 cells/well. […] Post-treatment, the adherent cells (HeLa and U-2 OS) were collected by trypsinization, re-suspended in 0.5 mL of fresh PBS and analyzed using flow cytometry. Jurkat cells were analyzed without washing.
Flow cytometry experiments were performed using a FACS Calibur benchtop flow cytometer (BD Biosciences) equipped with a blue (488 nm) laser, and the fluorescence was recorded in the FITC (530/30 filter), PE (585/42 filter) and PerCP (670 LP filter) channels. Hypoxic cells were detected by detecting increases in fluorescence. The degree of hypoxia (Khyp) can be quantified by using Kolmogorov-Smirnov statistics (Young, 1977) or the following formula: Khyp=(MFIhyp−MFIcon)/MFIhyp, […]

[2] = Chemical assay: reduction of probe by sodium hydrosulfite, fluorescence; settings: PBS pH 7.4, room temperature, over a 60 minute period
Experimental: A solution of probe CD-6 in DMSO (0.1-1.0 μl) was added to 90 μl of PBS buffer (10 mM, pH 7.4). After mixing, 10 μl of 100 mM aqueous sodium hydrosulfite was added. The reaction mixture was incubated at room temperature for amount of time ranging from 1 minute to 6 hours. As a control, 10 μl of water instead of sodium hydrosulfite was used.

Jurkat cells [3] = assay: Combined detection of hypoxia and superoxide in live cells by flow cytometry; assay type: cell-based, human
Experimental: HeLa, U-2 OS, and Jurkat cell lines were cultured as described in Examples 7 and 9. Stock solutions of the probes and inhibitors were prepared as described in Examples 7 and 10.
The day before the experiment, HeLa and U-2 OS cells were seeded in 6-well tissue culture plates at a density of 5×10^5 cells/well. Jurkat cells were collected in logarithmic phase of growth and aliquoted at a density of 5×10^5 cells/sample. On the day of the experiment, the cells were preloaded with either hypoxia or ROS-detecting probes only or with the combination of hypoxia and ROS-detecting probes with compatible spectral characteristics. Samples stained with single hypoxia probes or with two ROS-detecting probes were made to validate data obtained with the combination of hypoxia and redox probes. The probes used in the experiment and their final concentrations in cell culture medium were as follows: CD-1(5 μM) and CD-6 (1 μM), DCFDA, peroxide/peroxynitrite/hydroxyl detection probe and HE, specific superoxide detection reagent (1 μM for both redox probes). Hypoxia was induced in the cells as described in Example 7. Additionally, cells were treated with different general and specific ROS inducers and stained with ROS-detecting probes to control ROS production and staining. Post-treatment, the adherent cells (HeLa and U-2 OS) were collected by trypsinization, re-suspended in 0.5 mL of fresh PBS and analyzed using flow cytometry. Jurkat cells were analyzed without washing. Flow cytometry experiments were performed using an FACS Calibur benchtop flow cytometer (BD Biosciences) equipped with a blue (488 nm) laser, and the fluorescence was recorded in the FITC (530/30 filter), PE (585/42 filter) and PerCP (670 LP filter) channels. Data were collected uncompensated, also compensation corrections were performed using unstained cells, and cells stained with each single dye separately (CD-1, CD-6, DCFDA or HE). To quantify data, quadrant gates were set using untreated samples.

[4] = tested on: bacterial nitroreductases; settings: cited from earlier work
[5] = tested on: mammalian single-electron reductases; settings: cited from earlier work

O=C(Nc1ccc2c(c1)Oc1cc(NC(=O)N3CCOCC3)ccc1C21OC(=O)c2ccccc21)OCc1ccccc1 (centres unmarked) [CD-3]
fluorescence signal in hypoxic HeLa cells (hypoxic HeLa cells): did not yield any fluorescent signal

O=C(Nc1ccc2c(C(F)(F)F)cc(=O)oc2c1)OCc1ccc([N+](=O)[O-])cc1 [CD-5]
hypoxia probe fluorescent signal in hypoxic HeLa cells, multiplexed with ROS dyes (HeLa cells; 5 μM, all four hypoxic samples (anoxia, CoCl2, DFO, DMOG)): bright fluorescent signal

O=C(Nc1ccc2c(c1)Oc1c(cc3c4c1CCCN4CCC3)C21OC(=O)c2ccccc21)OCc1ccc([N+](=O)[O-])cc1 (centres unmarked) [CD-6]
fluorescence in Jurkat cells treated with chemical hypoxia inducers or subjected to anoxia (Jurkat cells [1]): fluorescence increase | fluorescence after combining with sodium hydrosulfite [2]: increasing fluorescence | detection of hypoxic cell populations (Jurkat cells [3]; CD-6 1 μM with DCFDA or HE dyes or alone, flow cytometry): able to detect hypoxic cell populations

O=c1c(Cl)c2oc3cc([N+](=O)[O-])ccc3nc-2c2ccccc12 [CNOB, 6-Chloro-9-nitro-5-oxo-5H-benzo[a]phenoxazine]
substrate for bacterial nitroreductases [4]: good substrate | substrate for mammalian nitroreductases [5]: apparently not a substrate

[Cl][Co][Cl] [CoCl2, cobalt chloride]
superoxide production (superoxide detection reagent staining) in treated HeLa cells (HeLa cells): only moderate staining | superoxide production: population of orange positive cells (Jurkat cells [3]; Jurkat cells, compared to the untreated cells): about 20%

CC(=O)N(O)CCCCCNC(=O)CCC(=O)N(O)CCCCCNC(=O)CCC(=O)N(O)CCCCCN [DFO, desferrioxamine]
superoxide production (superoxide detection reagent staining) in treated HeLa cells (HeLa cells): Abundant superoxide production

COC(=O)CNC(=O)C(=O)OC [DMOG, dimethyloxalylglycine, N-[Methoxyoxoacetyl]glycine methyl ester]
superoxide production (superoxide detection reagent staining) in treated HeLa cells (HeLa cells): Abundant superoxide production | peroxides/peroxynitrite formation in treated HeLa cells (HeLa cells; DCFDA staining): detected in DMOG-treated cells only

Cn1c2cccc(=O)c-2nc2ccccc21 [Pyocyanin, pyocyanin]
hypoxia state: positive green cells (Jurkat cells [3]; Jurkat cells stained with CD-1, pyocyanin-treated): about 10% | superoxide production in treated Jurkat cells (Jurkat cells [3]; positive control for ROS production): high superoxide production
